Values of other authors, collected in patent US10898452B2, “Stable formulation for parenteral administration of Tapentadol” (Gruenenthal GmbH, priority 2016, dated 2021).

Settings: more pronounced at higher pH values

Question: Which antimicrobial properties does the source give for CC[C@@H](c1cccc(O)c1)[C@@H](C)CN(C)C [Tapentadol, (1R,2R)-3-(3-dimethylamino-1-ethyl-2-methyl-propyl)-phenol] here?
Answer: exhibits antimicrobial properties
